Source: patent US9919978B2, “Selenium-doped nano silica sol used for producing selenium-enriched rice and capable of suppressing absorption and accumulation of heavy metals in paddy rice and preparation method therefor” (GUANGDONG INSTITUTE OF ECO-ENV[…] & TECHNOLOGY, priority 2013, dated 2018)

Tested on: rice
Assay: Pot experiment: foliar application on rice grown in arsenic-contaminated soil (Example 4)
Assay type: in vivo, rice (variety Youyou 128)
Description: The pot experiment for showing the effects of relieving the heavy metal poison in rice by foliar application of the selenium-doped nano-silica sol.
The soils to be tested were collected from an arsenic-contaminated rice field, in Yanhong Town, Chenghai District, Shantou City, Guangdong Province, China, the surface layer of the cultivated soils (0-10 cm) in the rice field was taken as the soil, air-dried and sieved, 10 kg of the soil were weighed and filled into barrels, wherein the basic physical and chemical properties of the soil were as follows: pH 6.12, organic matter 2.73%, total nitrogen 1.5 g/kg, total phosphorus 1.02 g/kg, total potassium 11.3 g/kg, CEC 8.75 cmol/kg, total arsenic 93.6 mg/kg, and total selenium 0.879 mg/kg.
Cultivation and treatment of rice: the rice variety was Youyou 128, the rice seed surface was disinfected for 15 minutes with 5% sodium hypochlorite solution, after washing with tap water, germination and seedling were carried out, then the uniform young seedlings were selected and transplanted. […] Each of the treatments was repeated four times, and the rices were harvested after they were matured. The dry weight of rice per pot was weighed, and the arsenic and selenium contents in rice were analyzed.

O=[Se]([O-])[O-].[Na+].[Na+] [1% Se, sodium selenite]
selenium content in rice relative to that after the selenium-doped nano-silica sol with 1% selenium (foliar application): 66% | dry weight of rice grain reduced as compared with the control (foliar application at tillering stage, diluted 100-fold, arsenic-contaminated soil): 13.1% | selenium content in rice (foliar application, diluted 100-fold, control 0.050 mg/kg): 0.180 mg/kg | reduction of arsenic content in rice as compared with the control (foliar application, diluted 100-fold, soil total arsenic 93.6 mg/kg): 19%
